Laboratory results from publication PMC7222207, “Characterization of a CholesteroNitrone (ISQ-201), a Novel Drug Candidate for the Treatment of Ischemic Stroke” (Antioxidants, 2020).

Experiments:
[1] = tested on: transient forebrain ischemia; test: Long-term behavioral tests in Y maze (exploration, spatial recognition, spatial memory); type: in vivo, male Wistar rats; details: 0.05 mg/kg iv at reperfusion onset, 11 weeks after ischemic reperfusion
Procedure: For the long-term studies, animals were subjected to behavioral tests, in order to assess their spontaneous spatial alternation and spatial memory skills, as markers of neurological damage present in longer periods, after the surgical procedure. According to previous literature, we selected the Y maze, in which both the exploration activity (spatial recognition) and spatial memory were evaluated.
For the exploration activity and spatial recognition, control animals and ischemic animals treated with the vehicle or ISQ-201 were placed in the center of the maze and let to explore for 8 min. The total number of arms that the animal entered indistinctly (number of arm entries) and the times that the animal explored consecutively—the three different arms of the maze (number of alternations or triads)—were registered by an observer blind to the treatment.
For the assessment of spatial memory, the control animals and ischemic animals treated with the vehicle or ISQ-201 were placed into one of the arms of the Y maze (start arm) and were allowed to explore the maze with one of the arms closed for 10 min (training trial). After 1 h, the rats were returned to the Y maze by placing them in the start arm and allowing them to freely explore all three arms of the maze for 3 min. The arm of the first choice of entry, the new or old, was registered manually by an observer blind to the treatment.

[2] = tested on: transient forebrain ischemia; test: Global cerebral ischemia (4VO), neurological deficit score (NDS); type: in vivo, male Wistar rats; details: evaluated at 5 days
Procedure: Transient forebrain ischemia was induced in adult male Wistar rats (10–12 weeks, Charles River) by the standard four-vessel occlusion model (4VO) described previously. Briefly, both vertebral arteries were irreversibly occluded by electrocoagulation under anesthesia, with a mixture of atropine, ketamine, and diazepam (0.25, 62.5, and 5 mg/kg, respectively) delivered through intraperitoneal injection. After 24 h, ischemia was induced by carotid occlusion with atraumatic clips, for 15 min, and then the clips were removed from the carotid arteries to allow reperfusion. Body temperature was maintained at 37 °C during the surgical procedure. The animals were studied after 5 days of reperfusion (R5d) after which they were sacrificed. Sham control animals were prepared in the same way, without carotid occlusion. We performed a power analysis (http://www.biomath.info/power/ttest.htm) to determine the sample size. Significance level and statistical power were set at 0.05 and 0.8 (80%), respectively, which afforded a sample size of <6 subjects per group. […]
Neurological deficits in rats subjected to global cerebral ischemia were blindly evaluated after 5 days of reperfusion (R5d). […]
In order to quantify potential functional impairments, the general state of the animals was assessed. […]

[3] = tested on: transient middle cerebral artery occlusion; test: Transient focal cerebral ischemia (tMCAO), grip strength test; type: in vivo, male C57BL/6 mice; details: mice, 0.05 mg/kg or 0.1 mg/kg ip at onset of reperfusion, 24 and 48 h after treatment
Procedure: Transient occlusion of the distal branch of the middle cerebral artery (tMCAO) was induced in male C57BL/6 mice (9–11 weeks old, Charles River), as described previously. Mice were anesthetized with 4% isoflurane for induction and 1.5–2% isoflurane for maintenance (in 79% N2/21% O2). After drilling a small hole on the temporal bone at the level of the distal portion of the middle cerebral artery (MCA), the artery was compressed for 60 min, with a 30-G needle by using a micromanipulator. Body temperature was maintained between 36.5–37.5 °C and cerebral blood flow was monitored using laser-Doppler flowmetry to confirm MCA occlusion. Buprenorphine (0.05–0.1 mg/kg) was administered subcutaneously immediately before the procedure. A total of 33 mice were subjected to tMCAO, according to the study design. A power analysis was performed to determine the sample size (significance level set at 0.05, and the power set at 0.8 (80%)), which identified the need for 8 mice to be included in each experimental group. […]
Neurobehavioral studies were performed to evaluate ischemic outcomes and monitor motor function after focal ischemia. […] A total of six trials were conducted for each test and the strength value (expressed in grams) was calculated as the mean of all six trials.

Question: Which “spatial memory (new arm as first choice), Y maze” value [1] does the source give for `CC(C)[C@H]1CC[C@H]2[C@@H]3CCC4=C/C(=[N+](\C)[O-])CC[C@]4(C)[C@H]3CC[C@]12C` [ISQ-201] here?
Answer: Its value is “recovery of values similar to the control group”.

Question: And the “exploration activity (number of arm entries), Y maze” value ([1]; vs control group)?
Answer: Its value is “no significant differences with the control group”.

Question: What about the “spatial recognition (number of alternations or triads), Y maze” value ([1]; vs control group) of the same compound?
Answer: The value was “no significant differences”.

Question: And the “neurological deficit score (NDS) vs vehicle” value ([2]; 0.05 mg/kg iv given after 48 h of reperfusion)?
Answer: The value was “could not improve”.

Question: And the “neurological deficit score (NDS) vs vehicle” value ([2]; 0.05 mg/kg iv given between 0 and 6 h of post-reperfusion)?
Answer: Its value is “improvement”.

Question: And the “motor deficit (grip strength) vs vehicle” value [3]?
Answer: Its value is “significant decrease”.
